Experiment: xn = mol fraction of the nth substance listed
Settings: 100 kPa, Liquid; for viscosity: Capillary tube (Ostwald / Ubbelohde) method; for mass density: Vibrating tube method

O=C1CCCO1 [γ-butyrolactone] + CCCCn1cc[n+](C)c1.N#CN=C=[N-]
Settings | mass density [kg/m3] | viscosity [mPa·s]
273.15 K, x2 = 0 | 1149.15 | 2.69
273.15 K, x2 = 0.0504 | 1142.33 | 3.61
273.15 K, x2 = 0.1002 | 1136.31 | 4.65
273.15 K, x2 = 0.2002 | 1124.63 | 7.69
273.15 K, x2 = 0.2984 | 1114.82 | 11.85
273.15 K, x2 = 0.4005 | 1106.01 | 17.81
273.15 K, x2 = 0.4954 | 1099.09 | 24.81
273.15 K, x2 = 0.6957 | 1087.48 | 45.75
273.15 K, x2 = 0.8871 | 1079.17 | 74.11
283.15 K, x2 = 0 | 1139.31 | 2.21
283.15 K, x2 = 0.0504 | 1133.08 | 2.94
283.15 K, x2 = 0.1002 | 1127.5 | 3.73
283.15 K, x2 = 0.2002 | 1116.53 | 5.87
283.15 K, x2 = 0.2984 | 1107.21 | 8.75
283.15 K, x2 = 0.4005 | 1098.76 | 12.54
283.15 K, x2 = 0.4954 | 1092.29 | 16.9
283.15 K, x2 = 0.6957 | 1081.06 | 29.14
283.15 K, x2 = 0.8871 | 1072.88 | 44.36
293.15 K, x2 = 0 | 1129.49 | 1.86
293.15 K, x2 = 0.0504 | 1123.86 | 2.42
293.15 K, x2 = 0.1002 | 1118.73 | 2.97
293.15 K, x2 = 0.2002 | 1108.38 | 4.53
293.15 K, x2 = 0.2984 | 1099.49 | 6.68
293.15 K, x2 = 0.4005 | 1091.44 | 9.31
293.15 K, x2 = 0.4954 | 1085.13 | 12.22
293.15 K, x2 = 0.6957 | 1074.27 | 19.95
293.15 K, x2 = 0.8871 | 1066.34 | 28.87
298.15 K, x2 = 0 | 1124.59 | 1.71
298.15 K, x2 = 0.0504 | 1119.26 | 2.22
298.15 K, x2 = 0.1002 | 1114.35 | 2.77
298.15 K, x2 = 0.2002 | 1104.32 | 4.16
298.15 K, x2 = 0.2984 | 1095.65 | 5.92
298.15 K, x2 = 0.4005 | 1087.78 | 8.18
298.15 K, x2 = 0.4954 | 1081.58 | 10.57
298.15 K, x2 = 0.6957 | 1070.9 | 16.81
298.15 K, x2 = 0.8871 | 1063.09 | 23.85
303.15 K, x2 = 0 | 1119.68 | 1.59
303.15 K, x2 = 0.0504 | 1114.67 | 2.03
303.15 K, x2 = 0.1002 | 1109.99 | 2.5
303.15 K, x2 = 0.2002 | 1100.28 | 3.81
303.15 K, x2 = 0.2984 | 1091.83 | 5.27
303.15 K, x2 = 0.4005 | 1084.14 | 7.14
303.15 K, x2 = 0.4954 | 1078.05 | 9.15
303.15 K, x2 = 0.6957 | 1067.55 | 14.23
303.15 K, x2 = 0.8871 | 1059.86 | 19.86
313.15 K, x2 = 0 | 1109.87 | 1.37
313.15 K, x2 = 0.0504 | 1105.49 | 1.74
313.15 K, x2 = 0.1002 | 1101.27 | 2.14
313.15 K, x2 = 0.2002 | 1092.23 | 3.14
313.15 K, x2 = 0.2984 | 1084.22 | 4.27
313.15 K, x2 = 0.4005 | 1076.84 | 5.64
313.15 K, x2 = 0.4954 | 1071.02 | 7.11
313.15 K, x2 = 0.6957 | 1060.89 | 10.69
313.15 K, x2 = 0.8871 | 1053.44 | 14.53
323.15 K, x2 = 0 | 1100.05 | 1.2
323.15 K, x2 = 0.0504 | 1096.31 | 1.52
323.15 K, x2 = 0.1002 | 1092.59 | 1.83
323.15 K, x2 = 0.2002 | 1084.21 | 2.63
323.15 K, x2 = 0.2984 | 1076.75 | 3.56
323.15 K, x2 = 0.4005 | 1069.73 | 4.6
323.15 K, x2 = 0.4954 | 1064.05 | 5.7
323.15 K, x2 = 0.6957 | 1054.29 | 8.38
323.15 K, x2 = 0.8871 | 1047.09 | 11.03

Reference: the NIST ThermoML archive (doi:10.1016/j.jct.2016.02.014)
